Literature values as cited in patent US20260091069A1, “TRANS[…] TRA[…] REGULATED ONCOLYTIC HERPES SIMPLEX VIRUS VECTORS” (VIROGIN BIOTECH CANADA LTD, priority 2021, published 2026).

Conditions: clinical dose of Ganciclovir

## Nc1nc(O)c2ncn(COC(CO)CO)c2n1 [Ganciclovir]
  Cmax in humans: 9 µg/mL
